In US20080292584A1 (priority 2005, published 2008):
Where “and” joins values, the source holds several entries; their conditions need not be identical. Identical values can stand only once. Like-named read-outs stand apart in the source and are kept apart here.

Experiments:
CYP2B6 = assay: Chemical inhibition of metaxalone turnover in human liver microsomes, CYP2B6 inhibitor thio-TEPA; settings: 1 mg/mL HLM, 60 min, with thio-TEPA; for % Turnover / % inhibition of turnover / Conc.: single replicates
Protocol: (§1) Human liver microsomes pooled from 15 individuals (male and female) (Pool HMMC-PL020; CellzDirect, Inc., In Vitro Products and Services Division) were used in some experiments of this study.
(§2) % Turnover=100−{[TA(final)]/[mean of TA(0 min)]}×100,
(§3) % Inhibition of Turnover=100{1−([TA(0 min)]−[TA(final-inhibitor)])/([TA(0 min)]−[TA(final-no inhibitor)])}.
(§4) The inhibitors or vehicle control were incubated with the pooled human liver microsomes (1 mg/mL) and NADPH (1 mM) in 0.1 M phosphate buffer, pH 7.4. […] Incubations were conducted in triplicate and terminated by addition of organic solvent. Samples were extracted and analyzed by LC-MS/MS as described above.

CYP2C9 [1] = target: T1, CYP2C9 (Homo sapiens, UniProt P11712); assay: Metabolism of metaxalone by expressed recombinant human CYP2C9 at 5 or 20 pmol (Example 4); settings: for % Turnover Mean / [metaxalone] Mean / % Turnover % / [metaxalone]: 60 min; for % Turnover % / [metaxalone]: single replicates, listed as Metaxalone
Protocol: For CYP2C9 and CYP2D6, SUPERSOMES singly-expressing different allelic variants of the cytochrome p450 isozyme were commercially available. For each of CYP2C9 and CYP2D6, only the *1 allele was tested in these experiments. […]

CYP2A6 = target: T2, CYP2A6 (Homo sapiens, UniProt P11509); assay: Metabolism of metaxalone by expressed recombinant human CYP2A6 (Example 1); settings: 30 min;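 note: expressed P450 incubations started with NADPH regenerating system, 0.5 mL final volume, compared against metabolic negative controls, with background signal estimated from matrix controls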
T2 sequence (P11509 1-494): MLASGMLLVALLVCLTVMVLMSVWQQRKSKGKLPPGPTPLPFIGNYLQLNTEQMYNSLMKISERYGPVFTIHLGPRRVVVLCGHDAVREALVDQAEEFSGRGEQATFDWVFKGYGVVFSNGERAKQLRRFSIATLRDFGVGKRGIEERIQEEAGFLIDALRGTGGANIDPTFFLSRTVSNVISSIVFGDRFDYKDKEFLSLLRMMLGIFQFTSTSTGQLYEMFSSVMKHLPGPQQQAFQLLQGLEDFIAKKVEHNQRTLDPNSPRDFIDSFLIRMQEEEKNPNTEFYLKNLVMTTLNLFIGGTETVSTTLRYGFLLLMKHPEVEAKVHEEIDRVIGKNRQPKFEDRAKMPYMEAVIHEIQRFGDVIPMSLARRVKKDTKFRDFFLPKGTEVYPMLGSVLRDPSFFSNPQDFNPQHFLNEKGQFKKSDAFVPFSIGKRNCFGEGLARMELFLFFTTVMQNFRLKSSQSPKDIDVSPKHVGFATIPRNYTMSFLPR
Protocol: (§5) Commercially available microsomes from baculovirus-infected insect cells containing singly-expressed recombinant wild-type (*1 allele) human CYP enzymes and cDNA-expressed human cytochrome p450 oxidoreductase [BD SUPERSOMES Enzymes; BD Biosciences Discovery Labware (Woburn, Mass.)] were used.
(§6) After a 5-minute pre-incubation, an NADPH regenerating system (NRS) was added to the incubation mixtures to initiate reactions, with a final incubation volume of 0.5 mL. Incubations were continued for 30 minutes, and then terminated, except for those for CYP2C19, which were incubated for 36 minutes prior to termination.
(§7) Matrix controls were performed to determine the background signal from the matrix components (microsomes (10 pmol p450), 01N Tris buffer, NRS, and 1% methanol). […] After a 5-minute pre-incubation, 2% sodium bicarbonate solution was added to the incubation mixtures. Incubation was for 30 minutes at a final volume of 0.5 mL. Matrix and metabolic negative controls were terminated by adding an equal volume of methanol. […] Analysis of samples was subsequent to storage at −70° C.

CYP2C19 = CYP2C19 (Homo sapiens, UniProt P33261);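 note: CYP2C19 incubations ran for 30 minutes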
Protocol: Microsomes were prepared by differential centrifugation of liver homogenates pooled from at least ten human donors.
After a 5 minute preincubation, NADPH regenerating system (NRS) was added to initiate the reaction. CYP2A6 and CYP3A4 incubations were for 10 minutes. All other incubations were for 30 minutes.
Incubations for CYP2C8 were terminated by adding 1.0 mL of ACN, while all other incubations were terminated by adding 1.0 mL of methanol.
Vehicle control experiments were performed to establish a baseline value for enzyme activity. […] Four replicates were performed.
Two replicates were performed. […] No interference was detected in any of the metabolite assay methods used.

CYP2C9 [2] = target: T1, CYP2C9; assay: Metabolism of metaxalone by expressed recombinant human CYP2C9 (Example 1); settings: 30 min
Protocol: as §5, §6, §7

CYP2D6 = CYP2D6 (Homo sapiens, UniProt P10635); assay: Induction/inhibition of CYP2D6 activity in cryopreserved human hepatocytes (dextromethorphan)
Source text: Hepatocytes from three human donors were obtained from a cryopreserved hepatocyte bank (In Vitro Technologies, Inc., USA). After thawing, viable hepatocytes were transferred to collagen-coated 48-well plates for attachment in plating medium (DMEM stock (Dulbecco's modified Eagle's medium, supplemented with bovine serum albumin, fructose, N-(2-hydroxyethyl)piperazine-N′-(2-ethanesulfonate) (HEPES), and sodium bicarbonate), supplemented with antibiotics, bovine serum, hydrocortisone, insulin and minimum essential medium (MEM) nonessential amino acids). After attachment to the collagen matrix, plating medium was replaced with sandwich medium (plating medium supplemented with VITROGEN) and incubated until use.
The supplemented KHB was replaced with 150 μL supplemented KHB containing the appropriate isoform-selective substrate and incubated for 4 hrs prior to termination by adding 150 μL ice-cold methanol, except for the CYP2C8 incubations which were terminated by adding 150 μL acetonitrile.
All substrates were dissolved in acetonitrile.
Replicate trials and controls were performed. […] Additionally, reference control samples were included to evaluate inducibility of CYP2B6, CYP2C9, and CYP2C19 in the test system.
Mean specific activity values with associated p-values≦0.05 were deemed to be statistically significant.

CYP2E1 = CYP2E1 (Homo sapiens, UniProt P05181); settings: both, microsomes, 1 h, 0.75 μM, pH 7.4
Protocol: as §1, §2, §3, §4

[3] = 7.5 μM metaxalone, listed as Metaxalone
[4] = 0.75 μM metaxalone, 20 pmol cyp

Chain of CYP2D6 (P10635 whole entry): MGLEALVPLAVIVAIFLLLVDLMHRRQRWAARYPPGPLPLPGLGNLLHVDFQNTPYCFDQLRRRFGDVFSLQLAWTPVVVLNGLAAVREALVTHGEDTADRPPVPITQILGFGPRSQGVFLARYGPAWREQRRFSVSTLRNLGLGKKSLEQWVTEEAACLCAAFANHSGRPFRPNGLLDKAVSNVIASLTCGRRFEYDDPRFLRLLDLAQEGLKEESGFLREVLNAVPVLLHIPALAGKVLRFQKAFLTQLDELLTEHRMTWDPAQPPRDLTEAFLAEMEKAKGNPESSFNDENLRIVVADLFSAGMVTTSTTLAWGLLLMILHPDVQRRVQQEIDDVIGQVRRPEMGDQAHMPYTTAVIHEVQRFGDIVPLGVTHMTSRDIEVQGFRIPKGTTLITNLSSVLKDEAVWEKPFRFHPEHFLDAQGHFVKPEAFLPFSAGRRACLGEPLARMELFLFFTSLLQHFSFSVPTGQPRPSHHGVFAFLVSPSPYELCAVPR
Chain of CYP2C19 (P33261 whole entry): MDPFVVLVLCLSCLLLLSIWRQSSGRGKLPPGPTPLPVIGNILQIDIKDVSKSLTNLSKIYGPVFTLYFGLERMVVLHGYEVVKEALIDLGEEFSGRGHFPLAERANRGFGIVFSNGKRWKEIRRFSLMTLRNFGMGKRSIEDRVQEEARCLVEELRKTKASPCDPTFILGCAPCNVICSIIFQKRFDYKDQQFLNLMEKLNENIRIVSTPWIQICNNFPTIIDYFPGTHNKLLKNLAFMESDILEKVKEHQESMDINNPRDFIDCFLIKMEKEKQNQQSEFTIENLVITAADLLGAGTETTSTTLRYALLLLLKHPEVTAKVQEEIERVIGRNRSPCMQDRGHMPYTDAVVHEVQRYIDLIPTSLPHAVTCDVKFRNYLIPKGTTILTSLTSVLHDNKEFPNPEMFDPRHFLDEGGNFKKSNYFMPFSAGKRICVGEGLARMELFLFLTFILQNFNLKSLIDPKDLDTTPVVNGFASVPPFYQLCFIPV
T1 sequence (P11712 whole entry): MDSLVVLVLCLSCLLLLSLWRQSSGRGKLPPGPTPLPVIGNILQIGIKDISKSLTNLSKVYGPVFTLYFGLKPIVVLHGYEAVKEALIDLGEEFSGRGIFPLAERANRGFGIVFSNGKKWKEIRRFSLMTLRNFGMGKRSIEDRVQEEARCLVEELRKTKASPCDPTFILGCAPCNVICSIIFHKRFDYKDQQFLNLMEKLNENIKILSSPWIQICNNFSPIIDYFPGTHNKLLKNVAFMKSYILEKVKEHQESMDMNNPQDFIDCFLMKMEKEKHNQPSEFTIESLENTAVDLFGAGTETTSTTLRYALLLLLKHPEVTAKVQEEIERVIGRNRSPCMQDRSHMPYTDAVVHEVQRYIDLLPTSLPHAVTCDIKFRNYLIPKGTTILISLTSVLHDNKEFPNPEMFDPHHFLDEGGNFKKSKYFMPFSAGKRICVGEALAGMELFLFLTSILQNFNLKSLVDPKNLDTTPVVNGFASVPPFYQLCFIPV
Chain of CYP2E1 (P05181 whole entry): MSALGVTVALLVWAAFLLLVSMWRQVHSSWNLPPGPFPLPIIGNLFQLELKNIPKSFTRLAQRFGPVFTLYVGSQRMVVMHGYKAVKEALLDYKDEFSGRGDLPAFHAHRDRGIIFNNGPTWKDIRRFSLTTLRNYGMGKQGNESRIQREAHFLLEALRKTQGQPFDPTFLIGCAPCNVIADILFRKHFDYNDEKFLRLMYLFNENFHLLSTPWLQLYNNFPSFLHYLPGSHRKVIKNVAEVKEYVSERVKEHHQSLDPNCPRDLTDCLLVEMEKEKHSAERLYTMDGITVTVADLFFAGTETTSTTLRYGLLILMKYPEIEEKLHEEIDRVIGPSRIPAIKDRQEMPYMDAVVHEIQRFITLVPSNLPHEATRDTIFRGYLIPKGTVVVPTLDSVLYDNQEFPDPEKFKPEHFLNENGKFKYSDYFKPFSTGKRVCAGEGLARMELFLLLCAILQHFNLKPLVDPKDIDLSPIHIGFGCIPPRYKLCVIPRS

Cc1cc(C)cc(OCC2CNC(=O)O2)c1 (stereo not shown) [metaxalone, 5-[(3,5-dimethylphenoxy)methyl]-2-oxazolidinone]
% Turnover Mean (CYP2B6; 0.75 μM metaxalone): 12.4% | % inhibition of turnover Mean (CYP2B6; 0.75 μM metaxalone): 58.3% | Mean Conc. (CYP2B6; 0.75 μM metaxalone): 0.676 µM | % Turnover (CYP2B6; 0.75 μM metaxalone): 12.1% and 11.3% and 13.8% | % inhibition of turnover (CYP2B6; 0.75 μM metaxalone): 59.3% and 62.0% and 53.7% | Conc. (CYP2B6; 0.75 μM metaxalone): 0.678 µM and 0.684 µM and 0.665 µM | % Turnover Mean (CYP2B6; 7.5 μM metaxalone): 14.0% | % inhibition of turnover Mean (CYP2B6; 7.5 μM metaxalone): 43.3% | Mean Conc. (CYP2B6; 7.5 μM metaxalone): 7.33 µM | % Turnover (CYP2B6; 7.5 μM metaxalone): 7.7% | % Turnover (CYP2B6; [3]): 14.8% and 19.4% | % inhibition of turnover (CYP2B6; [3]): 68.7% and 40.0% and 21.1% | Conc. (CYP2B6; [3]): 7.86 µM and 7.26 µM and 6.86 µM | % Turnover Mean (CYP2C9 [1]; 0.75 μM metaxalone, 5 pmol cyp): 1.6% | [metaxalone] Mean (CYP2C9 [1]; 0.75 μM metaxalone, 5 pmol cyp): 0.779 µM | % Turnover % (CYP2C9 [1]; 0.75 μM metaxalone, 5 pmol cyp): 6.1% and 5.4% and −6.8% | [metaxalone] (CYP2C9 [1]; 0.75 μM metaxalone, 5 pmol cyp): 0.743 µM and 0.749 µM and 0.845 µM | % Turnover Mean (CYP2C9 [1]; [4]): 2.4% | [metaxalone] Mean (CYP2C9 [1]; [4]): 0.772 µM | % Turnover % (CYP2C9 [1]; [4]): 8.7% and 4.0% and −5.4% | [metaxalone] (CYP2C9 [1]; [4]): 0.722 µM and 0.760 µM and 0.834 µM | % Turnover Mean (CYP2C9 [1]; 7.5 μM metaxalone, 5 pmol cyp): 7.9% | [metaxalone] Mean (CYP2C9 [1]; 7.5 μM metaxalone, 5 pmol cyp): 7.78 µM | % Turnover % (CYP2C9 [1]; 7.5 μM metaxalone, 5 pmol cyp): 14.3% and 2.9% and 6.4% | [metaxalone] (CYP2C9 [1]; 7.5 μM metaxalone, 5 pmol cyp): 7.24 µM and 8.20 µM and 7.90 µM | % Turnover Mean (CYP2C9 [1]; 7.5 μM metaxalone, 20 pmol cyp): 3.7% | [metaxalone] Mean (CYP2C9 [1]; 7.5 μM metaxalone, 20 pmol cyp): 8.13 µM | % Turnover % (CYP2C9 [1]; 7.5 μM metaxalone, 20 pmol cyp): −1.1% and 1.6% and 10.7% | [metaxalone] (CYP2C9 [1]; 7.5 μM metaxalone, 20 pmol cyp): 8.54 µM and 8.31 µM and 7.54 µM | Substrate (CYP2C9 [1]; CYP isozyme 2C9, summary of studies): + | Metaxalone Present Adjusted Individual (CYP2A6; metaxalone 0.5 μM): 0.309 µM and 0.302 µM and 0.285 µM | Metaxalone Present Adjusted Mean ± SD (CYP2A6; metaxalone 0.5 μM): 0.299 ± 0.0124 µM | Metaxalone Present Raw (CYP2A6; metaxalone 0.5 μM): 0.1546 µM and 0.1511 µM and 0.1425 µM | Percent of Metabolic Negative Control Individual (CYP2A6; metaxalone 0.5 μM): 99.5% and 97.2% and 91.7% | Percent of Metabolic Negative Control Mean ± SD (CYP2A6; metaxalone 0.5 μM): 96.1 ± 3.99% | Metaxalone Present Adjusted Individual (CYP2A6; metaxalone 2.5 μM): 1.58 µM and 1.60 µM and 1.65 µM | Metaxalone Present Adjusted Mean ± SD (CYP2A6; metaxalone 2.5 μM): 1.61 ± 0.0373 µM | Metaxalone Present Raw (CYP2A6; metaxalone 2.5 μM): 0.7913 µM and 0.7979 µM and 0.8264 µM | Percent of Metabolic Negative Control Individual (CYP2A6; metaxalone 2.5 μM): 104% and 105% and 109% | Percent of Metabolic Negative Control Mean ± SD (CYP2A6; metaxalone 2.5 μM): 106 ± 2.46% | Metaxalone Present Adjusted Individual (CYP2A6; metaxalone 25 μM): 15.5 μM and 15.7 μM (2×) | Metaxalone Present Adjusted Mean ± SD (CYP2A6; metaxalone 25 μM): 15.6 ± 0.0975 µM | Metaxalone Present Raw (CYP2A6; metaxalone 25 μM): 7.764 µM and 7.85 µM and 7.846 µM | Percent of Metabolic Negative Control Individual (CYP2A6; metaxalone 25 μM): 101% and 102% (2×) | Percent of Metabolic Negative Control Mean ± SD (CYP2A6; metaxalone 25 μM): 102 ± 0.636% | inhibition of CYP activity at a statistically significant level (CYP2C19; 0.3-100 μM metaxalone, p≦0.05): inhibited | Inhibitor (CYP2C19; CYP isozyme 2C19, summary of studies): + | Percent of VC (CYP2C19; metaxalone 0.3 μM): 84.6% | Specific Activity Individual (CYP2C19; metaxalone 0.3 μM): 19.4 pmol/min/mg protein and 18.9 pmol/min/mg protein | Specific Activity Mean ± SD (CYP2C19; metaxalone 0.3 μM): 19.0 ± 0.399 pmol/min/mg protein | Percent of VC (CYP2C19; metaxalone 1 μM): 67.0% | Specific Activity Individual (CYP2C19; metaxalone 1 μM): 14.8 pmol/min/mg protein | Specific Activity Mean ± SD (CYP2C19; metaxalone 1 μM): 15.0 ± 0.186 pmol/min/mg protein | Percent of VC (CYP2C19; metaxalone 3 μM): 67.7% | Specific Activity Individual (CYP2C19; metaxalone 3 μM): 15.5 pmol/min/mg protein and 14.8 pmol/min/mg protein | Specific Activity Mean ± SD (CYP2C19; metaxalone 3 μM): 15.2 ± 0.317 pmol/min/mg protein | Percent of VC (CYP2C19; metaxalone 30 μM): 63.8% | Specific Activity Individual (CYP2C19; metaxalone 30 μM): 11.1 pmol/min/mg protein and 16.5 pmol/min/mg protein and 15.3 pmol/min/mg protein | Specific Activity Mean ± SD (CYP2C19; metaxalone 30 μM): 14.3 ± 2.82 pmol/min/mg protein | Percent of VC (CYP2C19; metaxalone 100 μM): 64.9% | Specific Activity Individual (CYP2C19; metaxalone 100 μM): 14.5 pmol/min/mg protein and 14.8 pmol/min/mg protein and 14.3 pmol/min/mg protein | Specific Activity Mean ± SD (CYP2C19; metaxalone 100 μM): 14.5 ± 0.274 pmol/min/mg protein | Metaxalone Present Adjusted Individual (CYP2C9 [2]; metaxalone 0.5 μM): 0.360 µM and 0.348 µM | Metaxalone Present Adjusted Mean ± SD (CYP2C9 [2]; metaxalone 0.5 μM): 0.355 ± 0.00608 µM | Metaxalone Present Raw (CYP2C9 [2]; metaxalone 0.5 μM): 0.18 µM and 0.1778 µM and 0.174 µM | Percent of Metabolic Negative Control Individual (CYP2C9 [2]; metaxalone 0.5 μM): 103% and 102% | Percent of Metabolic Negative Control Mean ± SD (CYP2C9 [2]; metaxalone 0.5 μM): 102 ± 1.75% | Metaxalone Present Adjusted Individual (CYP2C9 [2]; metaxalone 2.5 μM): 1.94 µM and 1.93 µM and 1.89 µM | Metaxalone Present Adjusted Mean ± SD (CYP2C9 [2]; metaxalone 2.5 μM): 1.92 ± 0.0246 µM | Metaxalone Present Raw (CYP2C9 [2]; metaxalone 2.5 μM): 0.9684 µM and 0.9659 µM and 0.946 µM | Percent of Metabolic Negative Control Individual (CYP2C9 [2]; metaxalone 2.5 μM): 101% and 100% | Percent of Metabolic Negative Control Mean ± SD (CYP2C9 [2]; metaxalone 2.5 μM): 99.7 ± 1.28% | Metaxalone Present Adjusted Individual (CYP2C9 [2]; metaxalone 25 μM): 21.3 µM and 21.6 µM and 21.5 µM | Metaxalone Present Adjusted Mean ± SD (CYP2C9 [2]; metaxalone 25 μM): 21.5 ± 0.144 µM | Metaxalone Present Raw (CYP2C9 [2]; metaxalone 25 μM): 10.66 µM and 10.8 µM and 10.73 µM | Percent of Metabolic Negative Control Individual (CYP2C9 [2]; metaxalone 25 μM): 100% and 102% and 101% | Percent of Metabolic Negative Control Mean ± SD (CYP2C9 [2]; metaxalone 25 μM): 101 ± 0.675% | Inducer/Inhibitor (CYP2D6): − | Percent of VC (CYP2D6; Donor 3, Metaxalone 0.4 μM): 98.8% | Percent of VC (CYP2D6; Donor 3, Metaxalone 4 μM): 89.8% | Specific Activity Mean ± SD (CYP2D6; Donor 3, Metaxalone 4 μM): 0.533 ± 0.0146 pmol/min/million cells | CYP2D6 activity (CYP2D6; hepatocytes): below the lower limit of quantitation | Percent of VC (CYP2D6; human, 48 h, 4 μM): 100% | effect on CYP2D6 activity (CYP2D6; human, hepatocytes, 48 h, 40 μM): significantly reduced CYP2D6 activity | % Turnover Mean (CYP2E1): −3.87%
